In patent publication US20210212913A1, “COSMETIC COMPOSITION FOR PROMOTING SKIN EXFOLIATION” (LG HOUSEHOLD & HEALTH CARE LTD., priority 2017, published 2021):

Test system: porcine skin stratum corneum
Assay: porcine skin stratum corneum evaluation (exfoliation evaluation)
Format: cell-based, pig
Conditions: 6 mm porcine skin sample, 100 ul sample, 37° C. and 50% humidity for a day; result in words (values only in figures)
Protocol: For the porcine skin stratum corneum evaluation of the present disclosure, the exfoliation evaluation method mentioned in Journal of the European Academy of Dermatology and Venereology, 2014, 28, 415-423 was modified and used. Specifically, a sample of 6 mm diameter from 1 mm thick skin of a pig, and the like, was taken with a biopsy tool, and it was placed in a 96-well plate, and after washing it with phosphate buffered saline (PBS) once, 100 ul of the sample to be tested was added. The present sample was stored under the conditions of 37° C. and 50% humidity for a day, and then the number of exfoliated stratum corneum was measured with a cell counter and a sample containing only water was plotted as a negative control group and 10% gluconolactone […] was plotted as a positive control group. The result was shown in the fold increase compared to the value of the result of gluconolactone 10% pH 6 for relative comparison.

Structure (SMILES): NC(=O)NC1NC(=O)NC1=O (stereo not shown) [allantoin]
- exfoliation ability (number of exfoliated stratum corneum, fold increase compared to gluconolactone 10% pH 6): did not have high efficacy when used alone
